Laboratory results reported in ChEMBL document CHEMBL3232909, “Arylamino bisphosphonates: potent and selective inhibitors of the tumor-associated carbonic anhydrase XII” (Bioorg Med Chem Lett, 2014).

Legend:
Carbonic anhydrase 12 = Carbonic anhydrase 12 (Homo sapiens, UniProt O43570)
Description: Inhibition of human recombinant carbonic anhydrase 12 preincubated for 15 mins by stopped flow CO2 hydration method

Carbonic anhydrase 2 = Carbonic anhydrase 2 (Homo sapiens, UniProt P00918)
Description: Inhibition of human recombinant carbonic anhydrase 2 preincubated for 15 mins by stopped flow CO2 hydration method

Carbonic anhydrase 14 = Carbonic anhydrase 14 (Homo sapiens, UniProt Q9ULX7)
Description: Inhibition of human recombinant carbonic anhydrase 14 preincubated for 15 mins by stopped flow CO2 hydration method

Carbonic anhydrase 9 = Carbonic anhydrase 9 (Homo sapiens, UniProt Q16790)
Carbonic anhydrase 1 = Carbonic anhydrase 1 (Homo sapiens, UniProt P00915)
Carbonic anhydrase 1, sequence (P00915 whole entry): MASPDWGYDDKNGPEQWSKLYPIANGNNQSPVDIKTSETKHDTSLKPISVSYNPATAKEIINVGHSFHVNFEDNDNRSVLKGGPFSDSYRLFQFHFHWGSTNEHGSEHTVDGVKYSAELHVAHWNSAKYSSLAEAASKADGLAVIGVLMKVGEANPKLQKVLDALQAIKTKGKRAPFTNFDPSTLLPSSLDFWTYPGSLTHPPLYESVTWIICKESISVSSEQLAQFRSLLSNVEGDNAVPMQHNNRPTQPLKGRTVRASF
Description: Inhibition of human recombinant carbonic anhydrase 1 preincubated for 15 mins by stopped flow CO2 hydration method

Carbonic anhydrase 14, sequence (Q9ULX7 whole entry): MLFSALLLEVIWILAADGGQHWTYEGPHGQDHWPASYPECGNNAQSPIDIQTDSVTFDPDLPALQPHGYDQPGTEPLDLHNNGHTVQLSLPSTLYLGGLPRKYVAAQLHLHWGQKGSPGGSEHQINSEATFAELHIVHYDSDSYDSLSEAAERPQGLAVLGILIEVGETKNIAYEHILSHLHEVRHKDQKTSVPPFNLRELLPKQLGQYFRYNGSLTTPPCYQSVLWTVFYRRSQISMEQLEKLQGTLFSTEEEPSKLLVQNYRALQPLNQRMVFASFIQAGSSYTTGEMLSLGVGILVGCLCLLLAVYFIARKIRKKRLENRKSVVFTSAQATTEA
Carbonic anhydrase 12, sequence (O43570 whole entry): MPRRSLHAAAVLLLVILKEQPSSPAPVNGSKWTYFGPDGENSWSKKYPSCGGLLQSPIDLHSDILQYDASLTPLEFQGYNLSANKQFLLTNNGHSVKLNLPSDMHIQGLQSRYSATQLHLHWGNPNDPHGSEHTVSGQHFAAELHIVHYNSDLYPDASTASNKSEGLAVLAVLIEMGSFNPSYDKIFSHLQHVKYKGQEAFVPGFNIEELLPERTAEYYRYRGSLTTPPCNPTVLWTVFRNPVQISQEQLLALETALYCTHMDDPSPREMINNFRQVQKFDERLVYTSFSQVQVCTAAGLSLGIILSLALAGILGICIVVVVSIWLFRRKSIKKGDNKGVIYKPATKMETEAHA

Row | Structure (SMILES) | IC50 (Carbonic anhydrase 12) [µM] | IC50 (Carbonic anhydrase 2) [µM] | IC50 (Carbonic anhydrase 14) [µM] | IC50 (Carbonic anhydrase 9) [µM] | IC50 (Carbonic anhydrase 1) [µM]
1 | O=P(O)(O)C(Nc1ccc(-c2ccccc2)cc1)P(=O)(O)O | > 10 | > 10 | 8.21 | > 10 | > 10
2 | O=P(O)(O)C(Nc1ccc(Cl)cc1Cl)P(=O)(O)O [2,4-DICHLOROPHENYLAMINOMETHYLENEBISPHOSPHONIC ACID] | > 10 | > 10 | 7.46 | > 10 | 7.14
3 | O=P(O)(O)C(Nc1ccc(Oc2ccc(Br)cc2)cc1)P(=O)(O)O | > 10 | 7.47 | 6.12 | 8.17 | > 10
4 | O=P(O)(O)C(Nc1ccc(Oc2ccccc2)cc1)P(=O)(O)O | > 10 | > 10 | 5.5 | 8.21 | > 10
5 | O=P(O)(O)C(Nc1ccc(Br)cc1)P(=O)(O)O | 0.239 | > 10 | > 10 | > 10 | > 10
6 | O=P(O)(O)C(Nc1ccc(Cl)c(Cl)c1)P(=O)(O)O [3,4-DICHLOROPHENYLAMINOMETHYLENEBISPHOSPHONIC ACID] | > 10 | > 10 | 7.84 | > 10 | > 10
7 | O=P(O)(O)C(Nc1cccc(Br)c1)P(=O)(O)O | > 10 | > 10 | 0.911 | > 10 | 8.29
8 | O=[N+]([O-])c1cccc(NC(P(=O)(O)O)P(=O)(O)O)c1 [(3-NITROPHENYLAMINO)METHYLENEDIPHOSPHONIC ACID] | 0.088 | > 10 | > 10 | > 10 | 0.814
9 | O=P(O)(O)C(Nc1ccccc1)P(=O)(O)O [(PHENYLAMINO)METHYLENEDIPHOSPHONIC ACID] | 0.437 | > 10 | > 10 | 8.92 | > 10
10 | O=P(O)(O)C(O)(Cn1ccnc1)P(=O)(O)O [ZOLEDRONIC ACID] | 0.316 | 0.062 | 0.092 | 5.32 | > 10
11 | O=P(O)(O)C(Nc1ccc(C(F)(F)F)cc1)P(=O)(O)O | 0.089 | > 10 | > 10 | > 10 | 6.08
12 | Cc1ccc(NC(P(=O)(O)O)P(=O)(O)O)cc1 [(P-TOLYLAMINO)METHYLENEDIPHOSPHONIC ACID] | 0.35 | > 10 | > 10 | > 10 | 5.93

The remaining lines, values ahead:

Row | IC50 (Carbonic anhydrase 12) [µM] | IC50 (Carbonic anhydrase 2) [µM] | IC50 (Carbonic anhydrase 14) [µM] | IC50 (Carbonic anhydrase 9) [µM] | IC50 (Carbonic anhydrase 1) [µM] | Structure (SMILES)
13 | 6.92 | 9.09 | 0.319 | > 10 | > 10 | O=P(O)(O)C(Nc1cccc2ccccc12)P(=O)(O)O
14 | 0.419 | > 10 | > 10 | > 10 | 7.98 | O=[N+]([O-])c1ccc(NC(P(=O)(O)O)P(=O)(O)O)cc1
15 | 0.269 | > 10 | > 10 | > 10 | > 10 | O=P(O)(O)C(Nc1ccc(F)cc1)P(=O)(O)O
16 | > 10 | > 10 | 8.81 | > 10 | 5.53 | O=[N+]([O-])c1cc(NC(P(=O)(O)O)P(=O)(O)O)ccc1F
17 | 8.69 | > 10 | 0.082 | 8.23 | > 10 | O=P(O)(O)C(Nc1cccc(F)c1)P(=O)(O)O
18 | 0.078 | 8.2 | > 10 | > 10 | 4.57 | O=P(O)(O)C(Nc1ccc(O)cc1)P(=O)(O)O
19 | 0.092 | > 10 | > 10 | > 10 | 5.83 | O=P(O)(O)C(Nc1cccc(C(F)(F)F)c1)P(=O)(O)O
20 | > 10 | 9.37 | 4.42 | 8.23 | > 10 | O=P(O)(O)C(Nc1ccc(Oc2ccc(Cl)cc2)cc1)P(=O)(O)O
21 | > 10 | 9.37 | 0.309 | 7.63 | > 10 | O=P(O)(O)C(Nc1cccc(-c2ccccc2)c1)P(=O)(O)O
